Source: US7138361B2, “Herbicidal heterocycles” (E. I. du Pont de Nemours and Company, priority 2000, dated 2006)

Assays:
Format in all cases: in vivo
[1] = system: duck salad (Heteranthera limosa); experiment: Test C flooded paddy test; settings: for Ducksalad plant response rating: Flooded Paddy, scale 0 to 100, 0 no effect, 100 complete control; for Plant response rating, Ducksalad: flooded paddy test, scale 0 to 100 (0 no effect, 100 complete control)
Method in brief: (§1)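 Response on a 0-to-100 scale (no effect to complete control) was assessed by eye versus controls. Plants had reached 2 leaves when treated in flooded paddy conditions. The assessment took place after 12–14 days of greenhouse growth.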

[2] = system: smallflower flatsedge (Cyperus difformis); experiment: Test C flooded paddy test; settings: for Flatsedge plant response rating: Flooded Paddy, scale 0 to 100, 0 no effect, 100 complete control; for Plant response rating, Flatsedge: flooded paddy test, scale 0 to 100 (0 no effect, 100 complete control)
Method in brief: as §1

[3] = system: Sunflower; experiment: Test C preemergence; settings: scale 0 to 100
[4] = system: bermudagrass (Cynodon dactylon); experiment: Test C postemergence
Source text: (§2) Seeds of plant species selected from bermudagrass (Cynodon dactylon), Surinam grass (Brachiaria decumbens), cocklebur (Xanthium strumarium), corn (Zea mays), crabgrass (Digitaria sanguinalis), woolly cupgrass (Eriochloa villosa), giant foxtail (Setaria faberii), goosegrass (Eleusine indica), johnsongrass (Sorghum halepense), kochia (Kochia scoparia), lambsquarters (Chenopodium album), morningglory (Ipomoea hederacea), yellow nutsedge (Cyperus esculentus), pigweed (Amaranthus retroflexus), common ragweed (Ambrosia elatior), soybean (Glycine max) and velvetleaf (Abutilon theophrasti) were planted and treated preemergence with test chemicals formulated in a non-phytotoxic solvent mixture which included a surfactant.
(§3) At the same time, plants selected from these crop and weed species and also winter barley (Hordeum vulgare), blackgrass (Alopecurus myosuroides), canary grass (Phalaris minor), chickweed (Stellaria media), downy brome (Bromus tectorum), green foxtail (Setaria viridis), Italian ryegrass (Lolium multiflorum), wheat (Triticum aestivum), wild oat (Avena fatua) and windgrass (Apera spica-venti) were treated with postemergence applications of some of the test chemicals formulated in the same manner. Plants ranged in height from 2 to 18 cm (1- to 4-leaf stage) for postemergence treatments. Plant species in the flooded paddy test consisted of rice (Oryza saliva), smallflower flatsedge (Cyperus difformis), duck salad (Heteranthera limosa) and barnyardgrass (Echinochloa crus-galli) grown to the 2-leaf stage for testing. Treated plants and controls were maintained in a greenhouse for 12 to 14 days, after which time all species were compared to controls and visually evaluated. Plant response ratings, summarized in Table C, are based on a scale of 0 to 100 where 0 is no effect and 100 is complete control. A dash (-) response means no test result.

[5] = system: lambsquarters (Chenopodium album); experiment: Test C postemergence
Source text: as §2, §3

[6] = Rate 500 g/ha, scale 0 to 100 (0 no effect, 100 complete control)

Compound	Ducksalad plant response rating ([1]; Rate 250 g/ha)	Ducksalad plant response rating ([1]; Rate 500 g/ha)	Plant response rating, Ducksalad ([1]; Rate 62 g/ha)	Plant response rating, Ducksalad ([1]; Rate 125 g/ha)	Flatsedge plant response rating ([2]; Rate 250 g/ha)	Flatsedge plant response rating ([2]; Rate 500 g/ha)	Plant response rating, Flatsedge ([2]; Rate 62 g/ha)	Plant response rating, Flatsedge ([2]; Rate 125 g/ha)	Plant response rating, Sunflower ([3]; Rate 16 g/ha)	Plant response rating, Sunflower ([3]; Rate 31 g/ha)	Plant response rating, Bermudagrass ([4]; Rate 62 g/ha, scale 0 to 100)	Plant response rating, Bermudagrass ([4]; Rate 125 g/ha, scale 0 to 100, 0 no effect, 100 complete control)	Plant response rating, Bermudagrass ([4]; Rate 250 g/ha, scale 0 to 100 (0 no effect, 100 complete control))	Plant response rating, Bermudagrass [4, 6]	Plant response rating, Lambsquarters ([5]; Rate 62 g/ha, scale 0 to 100)	Plant response rating, Lambsquarters [5, 6]	Plant response rating, Sunflower ([3]; Rate 62 g/ha)
CC(C)(C)c1ccn(C2CCN(c3cccc(Cl)c3)C2=O)n1 (stereo not drawn) [Compound 43]	30	80	0	20	100	100	90	100	0	0	–	–	–	–	–	–	–
CC(C)(C)c1ccn(C2CCN(c3cccc(OC(F)(F)F)c3)C2=O)n1 (stereo not drawn) [Compound 49]	90	100	50	70	100	100	100	100	–	0	–	–	–	–	–	–	–
CC(C)Oc1cccc(N2CCC(n3ccc(C(C)(C)C)n3)C2=O)c1 (stereo not drawn) [Compound 70]	100	100	100	–	90	90	90	–	–	0	–	–	–	–	–	–	–
COC(=O)c1cccc(N2CCC(n3ccc(C(C)(C)C)n3)C2=O)c1 (stereo not drawn) [Compound 73]	100	100	70	90	100	100	90	100	–	40	–	–	–	–	–	–	–
CCC(C)c1ccn(C2CCN(c3ccc(C)c(OC)c3)C2=O)n1 (stereo not drawn) [Compound 80]	100	100	80	100	90	100	90	90	–	–	0	0	0	20	10	90	–
CCC(CC)c1ccn(C2CCN(c3cccc(OC(C)C)c3)C2=O)n1 (stereo not drawn) [Compound 84]	100	100	90	90	100	100	90	90	–	–	–	–	–	–	–	–	0
CSc1cccc(N2CCC(n3ccc(C(C)(C)C)n3)C2=O)c1 (stereo not drawn) [Compound 86]	100	–	0	0	70	–	0	0	–	–	–	–	–	–	–	–	0
COc1cccc(N2CCC(n3ccc(C(C)(C)C)n3)C2=O)c1 (stereo not drawn) [Compound 87]	50	100	0	50	100	100	0	100	–	–	–	–	–	–	–	–	20
CCCC(C)c1ccn(C2OCN(c3cccc(C(F)(F)F)c3)C2=O)n1 (stereo not drawn) [Compound 89]	40	90	0	0	90	100	80	90	–	–	–	–	–	–	–	–	0
CCCC(C)c1ccn(C2SCN(c3cccc(OC(F)(F)F)c3)C2=O)n1 (stereo not drawn) [Compound 90]	90	90	80	–	100	100	100	100	–	0	–	–	–	–	–	–	0
CCCC(C)c1ccn(C2SCN(c3cccc(C(F)(F)F)c3)C2=O)n1 (stereo not drawn) [Compound 92]	100	100	80	100	100	100	90	100	–	–	–	–	–	–	–	–	0
CCC(C)c1ccn(C2CCN(c3cccc(OC)c3)C2=O)n1 (stereo not drawn) [Compound 95]	100	100	70	90	100	100	90	100	–	–	–	–	–	–	–	–	0
CCC(CC)c1ccn(C2CCN(c3cccc(OC)c3)C2=O)n1 (stereo not drawn) [Compound 96]	100	100	80	90	100	100	90	90	–	–	–	–	–	–	–	–	0
CCCC(C)c1ccn(C2CCN(c3cccc(OC)c3)C2=O)n1 (stereo not drawn) [Compound 99]	0	0	0	0	100	100	0	90	–	–	–	–	–	–	–	–	0
CCCC(C)c1ccn(C2CCN(c3cccc(C(F)(F)F)c3)C2=O)n1 (stereo not drawn) [Compound 100]	0	40	0	0	70	90	70	70	–	–	–	–	–	–	–	–	0
CC(C)(C)c1ccn(C2CCN(c3cccc([S+]([O-])C(F)(F)F)c3)C2=O)n1 (stereo not drawn) [Compound 101]	100	100	0	90	90	100	20	90	–	0	–	–	–	–	–	–	0
CC(C)c1cccc(N2CCC(n3ccc(C(C)(C)C)n3)C2=O)c1 (stereo not drawn) [Compound 111]	0	0	0	0	90	90	50	60	–	–	–	–	–	–	–	–	0
